Data taken from patent US20260317367A1, “SALTS INCLUDING CRYSTALLINE SALTS OF 25-HYDROXY-CHOLEST-5-EN-3-SULFATE AND METHODS FOR PREPARING SAME” (Durect Corporation, priority 2022, published 2026).
Entries after “also recorded” stand apart in the source; their conditions may differ. Structures can show the parent of a compound that is named as a salt. One block for each compound: values may come before it.

Legend:
Type in all cases: physicochemical
[1] = Solubility of 25HC3S salts after one day at room temperature (HPLC, as free acid); conditions: one day; for Solubility in FaSSGF: Fasted State Simulated Gastric Fluid, pH 1.6, room temperature, LOD 0.0007 mg/mL; for Solubility in methanol (in words): MeOH
In short: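 25HC3S salts were shaken with excess solid at room temperature for one day in organic solvents or aqueous/biorelevant media (FaSSIF, FeSSIF, FaSSGF), then centrifuged. Supernatants were assayed by HPLC against a free-acid standard curve (11 μg/mL to 1.5 mg/mL); values are mg/mL free acid, LOD 0.0007 mg/mL.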

[2] = Solid-state chemical stability of 25HC3S salts at 2-8° C., 60° C. and 80° C. (HPLC assay and degradation products); conditions: for % Impurities, Total / % Impurities, 25-HC: ND = Not Detected; for % Impurities, 25-HC: 25-Hydroxy-Cholesterol; for % Recovery: vs 2-8° C.; for Stability after 1 week at 60° C. (in words) / Stability after 3 weeks at 80° C. (in words): solid state; for Stability after 1 week at 60° C. (in words): 1 week (after 3 weeks at 2-8° C.)
In short: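 Crystalline 25HC3S salts (~25 mg powder per vial) stored at 2-8° C. or 80° C., pulled at 3 and 6 weeks; some 3-week 2-8° C. vials moved to 60° C. for 1 week. Dissolved in 100% methanol (sonication/vortexing, centrifugation or dilution), then HPLC against 25HC3S sodium standards (0.75-1.25 mg/mL) for assay and degradants.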

[3] = Appearance (color, clumping, flowability) of stored 25HC3S salts
[4] = Hausner ratio and compressibility index of 25HC3S salts; conditions: for Compressibility Index: Table C3 heads this index in %
In short: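 Powder poured into a 5 mL graduated cylinder to about 5.0 mL (Vo), tapped 200 then 100 more times on a hard surface; final volume Vf recorded after 300 taps. Compressibility index and Hausner ratio calculated from Vo and Vf; flow character classed per USP <1174>.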

[5] = Overall rank order of powder flowability (angle of repose and Hausner ratio); conditions: for Powder flowability, overall (in words): angle of repose and compressibility index/Hausner ratio combined; for Angle of Repose Rank Order / Hausner Ratio Rank Order / Overall Rank Order (Total Score): lower is better flow; for Overall Rank Order (Total Score): sum of both ranks
From the text: Table C5 was generated by adding the relative rank order of the 25HC3S salts for angle of repose and Hausner ratio results, and creating an Over All Rank Order of the salts powder flowability. The salts with the lower overall rank order score had better powder flowability.

[6] = 2-8° C., 3 wk, listed as 25HC3S hydroxyethylammonium
[7] = 60° C., 1 wk, listed as 25HC3S hydroxyethylammonium
[8] = 80° C., 3 wk, listed as 25HC3S hydroxyethylammonium
[9] = listed as 25HC3S hydroxyethylammonium
[10] = room temperature, listed as crystalline 25HC3S magnesium
[11] = 2-8° C., 3 wk, listed as 25HC3S magnesium
[12] = 60° C., 1 week, listed as 25HC3S Magnesium
[13] = 80° C., 3 weeks, listed as 25HC3S Magnesium
[14] = 80° C., 3 wk, listed as 25HC3S magnesium

solubility at 24 h ([1]; 0.9% nacl, room temperature, as free acid, ND = not detected, detection limit 0.7 μg/mL, read-out: Solubility in 0.9% NaCl): 2 µg/mL
Solubility in 5% Dextrose ([1]; 5% dextrose, room temperature, as free acid, ND = not detected, detection limit 0.7 μg/mL, 1440 min, listed as 25HC3S hydroxyethylammonium): 45 µg/mL
Solubility in FaSSGF (in words) ([1]; room temperature, listed as crystalline 25HC3S hydroxyethylammonium): low solubility
Solubility in FaSSIF ([1]; FaSSIF, room temperature, as free acid, 1440 min, listed as 25HC3S hydroxyethylammonium): 107 µg/mL
Solubility in FaSSGF ([1]; as free acid): no solubilized drug was detected
Solubility in FeSSIF ([1]; FeSSIF, room temperature, as free acid, 1440 min, listed as 25HC3S hydroxyethylammonium): 718 µg/mL
Solubility in methanol (in words) ([1]; room temperature): did not reach saturation
Solubility in ACN ([1]; acetonitrile, room temperature, as free acid, 1440 min, listed as 25HC3S hydroxyethylammonium): 200 µg/mL
Solubility in EtOH ([1]; ethanol, room temperature, as free acid, ≥ = did not reach saturation, 1440 min, listed as 25HC3S hydroxyethylammonium): ≥22000 µg/mL
Solubility in IPA ([1]; isopropyl alcohol, room temperature, as free acid, 1440 min, listed as 25HC3S hydroxyethylammonium): 3700 µg/mL
Solubility in MeOH ([1]; methanol, room temperature, as free acid, ≥ = did not reach saturation, 1440 min, listed as 25HC3S hydroxyethylammonium): ≥47000 µg/mL
Solubility in H2O ([1]; water, room temperature, as free acid, ND = not detected, detection limit 0.7 μg/mL, 1440 min, listed as 25HC3S hydroxyethylammonium): 43 µg/mL
Assay ([2]; 2-8° C., 3 wk, 30240 min, listed as 25HC3S hydroxyethylammonium): 91.9 % w/w
% Impurities, Total [2, 6]: 3.1%
% Impurities, 25-HC [2, 6]: 1.2%
% Impurities, 25-HC [2, 7]: 11.3%
Assay ([2]; 60° C., 1 wk (after 3 weeks at 2-8° C.), 10080 min, listed as 25HC3S hydroxyethylammonium, 10080 min): 0.0 % w/w
% Recovery of 2-8° C./3 wk vs 60° C./1 wk ([2]; 60° C., 1 wk, 10080 min, listed as 25HC3S hydroxyethylammonium): 0.0%
% Impurities, Total [2, 7]: 99.7%
% Recovery ([2]; 80° C., 3 wk, 30240 min, listed as 25HC3S hydroxyethylammonium, 30240 min): 0.0%
Assay ([2]; 80° C., 3 wk, 30240 min, listed as 25HC3S hydroxyethylammonium): 0.0 % w/w
% Impurities, Total [2, 8]: 100.1%
Stability after 1 week at 60° C. (in words) ([2]; 60° C.): totally decomposed
Stability after 3 weeks at 80° C. (in words) ([2]; 80° C., 3 weeks): totally decomposed
Appearance [3, 6]: White, free flowing powder, no clumping
Appearance ([3]; 60° C., 1 wk (after 3 weeks at 2-8° C.), listed as 25HC3S hydroxyethylammonium): Light brown, partially melted material
Appearance after 3 weeks at 80° C. ([3]; 80° C.): completely burned
Appearance [3, 8]: Dark brown, partially melted material
Compressibility Index [4, 9]: 18
Hausner Ratio [4, 9]: 1.22
Powder flowability, overall (in words) ([5]; listed as crystalline 25HC3S hydroxyethylammonium): relatively good flowability
Powder flowability, overall (in words) ([5]; listed as hydroxyethylammonium): top three
Angle of Repose Rank Order [5, 9]: 1
Hausner Ratio Rank Order [5, 9]: 1
Overall Rank Order (Total Score) [5, 9]: 2
Structure (SMILES): CC(CCCC(C)(C)O)C1CCC2C3CC=C4CC(OS(=O)(=O)O)CCC4(C)C3CCC12C (stereo not shown) [Salt #5]
Overall physical and chemical stability (in words) ([2]; 2-8° C., 60° C., 80° C.): least stable organic salt; also recorded: least physically and chemically stable
Physical and chemical solid-state stability (comments) ([2]; 60° C., 1 week, listed as 25HC3S Hydroxyethylammonium): Totally decomposed after 1 week at 60 °C and after 3 weeks at 80 °C
Physical and chemical solid-state stability (comments) ([2]; 80° C., 3 weeks, listed as 25HC3S Hydroxyethylammonium): Totally decomposed after 1 week at 60 °C and after 3 weeks at 80 °C

Solubility in ethanol (in words) ([1]; EtOH, room temperature): did not reach saturation
Solubility in FaSSGF (in words) [1, 10]: low solubility
Solubility in FaSSGF ([1]; as free acid): no solubilized drug was detected
Solubility in methanol (in words) ([1]; room temperature): did not reach saturation
Solubility in methanol (in words) [1, 10]: relatively high solubility
Solubility in saline / 0.9% sodium chloride (in words) ([1]; saline, room temperature, listed as crystalline 25HC3S magnesium): low solubility
Assay ([2]; 2-8° C., 3 wk, 30240 min, listed as 25HC3S magnesium): 90.8 % w/w
% Impurities, Total [2, 11]: 1.6%
Overall physical and chemical stability (in words) ([2]; 2-8° C., 60° C., 80° C.): least physically and chemically stable
Overall physical and chemical stability (in words) ([2]; 2-8° C., 60° C., 80° C., listed as magnesium): least stable
% Impurities, 25-HC [2, 11]: 0.3%
Physical and chemical solid-state stability (comments) [2, 12]: Totally decomposed after 1 week at 60 °C
Assay ([2]; 60° C., 1 wk (after 3 weeks at 2-8° C.), 10080 min, listed as 25HC3S magnesium, 10080 min): 0.0 % w/w
% Recovery of 2-8° C./3 wk vs 60° C./1 wk ([2]; 60° C., 1 wk, 10080 min, listed as 25HC3S magnesium): 0.0%
% Recovery ([2]; 80° C., 3 wk, 30240 min, listed as 25HC3S magnesium, 30240 min): 0.0%
Assay ([2]; 80° C., 3 wk, 30240 min, listed as 25HC3S magnesium): 0.0 % w/w
% Impurities, Total [2, 14]: 100%
Stability after 1 week at 60° C. (in words) ([2]; 60° C.): totally decomposed
Stability after 3 weeks at 80° C. (in words) ([2]; 80° C., 3 weeks): totally decomposed
Appearance [3, 11]: White, free flowing powder, no clumping
Appearance ([3]; 60° C., 1 wk (after 3 weeks at 2-8° C.), listed as 25HC3S magnesium): Brown, melted material stuck to bottom
Appearance after 3 weeks at 80° C. ([3]; 80° C.): completely burned
Appearance [3, 14]: Dark brown, melted material stuck to
Compressibility Index ([4]; listed as 25HC3S magnesium): 36
Hausner Ratio ([4]; listed as 25HC3S magnesium): 1.56
Powder flowability, overall (in words) ([5]; listed as magnesium): poorer flowability
Angle of Repose Rank Order ([5]; listed as 25HC3S magnesium): 7
Hausner Ratio Rank Order ([5]; listed as 25HC3S magnesium): 14
Overall Rank Order (Total Score) ([5]; listed as 25HC3S magnesium): 21
Structure (SMILES): CC(CCCC(C)(C)O)C1CCC2C3CC=C4CC(OS(=O)(=O)O)CCC4(C)C3CCC12C (stereo not shown) [Salt #13]
dissolution of decomposed samples in diluent / degradants observed (comments) [2, 12]: decomposed samples at 60 °C after 1 week did not dissolve in the diluent,; also recorded: therefore, no degradants were observed. However, the decomposed
Physical and chemical solid-state stability (comments) [2, 13]: Totally decomposed after 1 week at 60 °C and after 3 weeks at 80 °C
dissolution of decomposed samples in diluent / degradants observed (comments) [2, 13]: samples at 80 °C after 3 weeks may have dissolved slightly in the diluent,; also recorded: therefore, degradation products were observed
